Data set [1] concerns the target HDAC2 (Homo sapiens (Human), UniProt Q92769). In words: HDAC2 enzymatic assay. The data set is classed as biochemical. As to conditions: selectivity profile; read-out: HDAC Enzyme IC50, HDAC 2. The procedure:
(§1) All enzymatic reactions were conducted in duplicate at room temperature for 17 hours in a 50 μl mixture containing HDAC assay buffer (50 mM Tris-HCl, pH 7.4, 137 mM NaCl, 2.7 mM KCl, 0.05% Tween 20, 5 μg BSA), an HDAC substrate, an HDAC enzyme, and a test compound. Compound dilution was prepared ten-fold higher than the final concentration of the compounds with 10% DMSO in HDAC assay buffer and 5 μl of the dilution was added to a 50 μl reaction so that the final concentration of DMSO is 1% in all of reactions. After enzymatic reactions, 50 μl of HDAC Developer was added to each well and the plate was incubated at room temperature for an additional 20 minutes. Fluorescence intensity was measured at an excitation of 360 nm and an emission of 460 nm using a Tecan Infinite M1000 or Biotek Synergy microplate reader.
(§2) The fluorescent intensity data were analyzed using the computer software, Graphpad Prism. In the absence of the compound, the fluorescent intensity (Ft) in each data set was defined as 100% activity. In the absence of HDAC, the fluorescent intensity (Fb) in each data set was defined as 0% activity. The percent activity in the presence of each compound was calculated according to the following equation: % activity=(F−Fb)/(Ft−Fb), where F=the fluorescent intensity in the presence of the compound.
(§3) The values of % activity versus a series of compound concentrations were then plotted using non-linear regression analysis of Sigmoidal dose-response curve generated with the equation Y=B+(T−B)/1+10((Log EC50−X)×Hill Slope), where Y=percent activity, B=minimum percent activity, T=maximum percent activity, X=logarithm of compound and Hill Slope=slope factor or Hill coefficient. The IC50 value was determined by the concentration causing a half-maximal percent activity.
(§4) HDAC1 enzymatic assays contained 0.5 ng HDAC1 and 10 uM of HDAC substrate. HDAC2 enzymatic assays contained 0.5 ng HDAC2 and 10 uM of HDAC substrate. HDAC3 enzymatic assays contained 0.4 ng HDAC3/NCOR2 and 10 uM of HDAC substrate. HDAC4 enzymatic assays contained 0.02 ng HDAC4 and 2 uM of HDAC substrate. HDAC5 enzymatic assays contained 0.5 ng HDAC5 and 2 uM of HDAC substrate. HDAC6 enzymatic assays contained 2 ng HDAC6 and 10 uM of HDAC substrate. HDAC7 enzymatic assays contained 0.05 ng HDAC7 and 2 uM of HDAC substrate. HDAC8 enzymatic assays contained 5 ng HDAC8 and 2 uM of HDAC substrate. HDAC9 enzymatic assays contained 1 ng HDAC9 and 2 uM of HDAC substrate. HDAC10 enzymatic assays contained 75 ng HDAC10 and 10 uM of HDAC substrate. HDAC11 enzymatic assays contained 5 ng HDAC11 and 2 uM of HDAC substrate.

Data set [2] deals with HDAC4 (Homo sapiens (Human), UniProt P56524). In words: HDAC4 enzymatic assay. The data set is classed as biochemical. The settings on record: selectivity profile; read-out: HDAC Enzyme IC50, HDAC 4. The protocol:
as §1, §2, §3, §4

The target in data set [3] is HDAC11 (Homo sapiens (Human), UniProt Q96DB2). The data set can be described thus: HDAC11 enzymatic assay. It counts as biochemical. The settings on record: selectivity profile; read-out: HDAC Enzyme IC50, HDAC 11. The protocol:
as §1, §2, §3, §4

Data set [4] has as its target HDAC9 (Homo sapiens (Human), UniProt Q9UKV0). In words: HDAC9 enzymatic assay. The data set is classed as biochemical. As to conditions: selectivity profile; read-out: HDAC Enzyme IC50, HDAC 9. The protocol: as §1, §2, §3, §4
For data set [5], the target named is HDAC5 (Homo sapiens (Human), UniProt Q9UQL6). The data set can be described thus: HDAC5 enzymatic assay. The settings on record: selectivity profile; read-out: HDAC Enzyme IC50, HDAC 5. It counts as biochemical. The protocol: as §1, §2, §3, §4
A short description of data set [6]: Mouse Pharmacokinetics, oral single dose. The data set is classed as in vivo, male Swiss Albino mice. The settings on record: male, Swiss Albino, plasma, 5 mg/kg, formulation by footnote: a 20% CremEL in H20, b 1% CMC in water, c 2% DMSO, 0.2% Tween80, 97.8% of 1% CMC. The procedure: Example 187: Mouse Pharmacokinetics
A dose of 5 mg/kg in an appropriate formulation was administered by oral gavage to fasted male Swiss Albino mice (n=3), and the plasma was collected at 0, 0.25, 0.5, 1, 2, 4, 8, and 24 h. Plasma levels were measured by HPLC/MS/MS methods and the pharmacokinetic parameters were determined for individual animals from plasma concentration-time data using noncompartmental model 200-202 in Phoenix WinNonlin 6.3.

Data set [7] deals with HDAC8 (Homo sapiens (Human), UniProt Q9BY41). The data set can be described thus: HDAC8 enzymatic assay. It counts as biochemical. As to conditions: selectivity profile; read-out: HDAC Enzyme IC50, HDAC 8. The protocol:
as §1, §2, §3, §4

The target of data set [8] is HDAC1 (Homo sapiens (Human), UniProt Q13547). The data set can be described thus: HDAC1 enzymatic assay. The data set is classed as biochemical. The procedure, abridged:
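HDAC1 activity was measured in duplicate 50 μl reactions containing 0.5 ng HDAC1, 10 uM of HDAC substrate, and test compound in buffer (50 mM Tris-HCl, pH 7.4, 137 mM NaCl, 2.7 mM KCl, 0.05% Tween 20, 5 μg BSA) with 1% DMSO, incubated 17 hours at room temperature. HDAC Developer was then added for 20 minutes and fluorescence read at 360/460 nm.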

For data set [9], the target named is HDAC7 (Homo sapiens (Human), UniProt Q8WUI4). In words: HDAC7 enzymatic assay. The data set is classed as biochemical. As to conditions: selectivity profile; read-out: HDAC Enzyme IC50, HDAC 7. The protocol:
as §1, §2, §3, §4

In data set [10] the target is HDAC6 (Homo sapiens (Human), UniProt Q9UBN7). The data set can be described thus: HDAC6 enzymatic assay. It counts as biochemical. Summed up: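 Human HDAC6 activity was measured in duplicate 50 μl reactions holding 2 ng HDAC6, 10 uM of HDAC substrate and test compound in HDAC assay buffer (50 mM Tris-HCl, pH 7.4, 137 mM NaCl, 2.7 mM KCl, 0.05% Tween 20, 5 μg BSA) with 1% DMSO, for 17 hours at room temperature. HDAC Developer was added for 20 minutes before reading fluorescence at 360/460 nm.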

Data set [11] concerns the target HDAC10 (Homo sapiens (Human), UniProt Q969S8). In words: HDAC10 enzymatic assay. As to conditions: selectivity profile; read-out: HDAC Enzyme IC50, HDAC 10. It counts as biochemical. The protocol:
as §1, §2, §3, §4

Data set [12] has as its target HDAC3/NCOR2 (Homo sapiens (Human), UniProt O15379). In words: HDAC3 enzymatic assay. As to conditions: selectivity profile; read-out: HDAC Enzyme IC50, HDAC 3. The data set is classed as biochemical. The procedure:
as §1, §2, §3, §4

[13] abbreviates: selectivity profile, read-out: HDAC Enzyme IC50, HDAC 1.
Setting [14] is: selectivity profile, read-out: HDAC Enzyme IC50, HDAC 6.

Where two headings read alike, the source gives them in different places.

Sequence of HDAC6 (Q9UBN7 whole entry): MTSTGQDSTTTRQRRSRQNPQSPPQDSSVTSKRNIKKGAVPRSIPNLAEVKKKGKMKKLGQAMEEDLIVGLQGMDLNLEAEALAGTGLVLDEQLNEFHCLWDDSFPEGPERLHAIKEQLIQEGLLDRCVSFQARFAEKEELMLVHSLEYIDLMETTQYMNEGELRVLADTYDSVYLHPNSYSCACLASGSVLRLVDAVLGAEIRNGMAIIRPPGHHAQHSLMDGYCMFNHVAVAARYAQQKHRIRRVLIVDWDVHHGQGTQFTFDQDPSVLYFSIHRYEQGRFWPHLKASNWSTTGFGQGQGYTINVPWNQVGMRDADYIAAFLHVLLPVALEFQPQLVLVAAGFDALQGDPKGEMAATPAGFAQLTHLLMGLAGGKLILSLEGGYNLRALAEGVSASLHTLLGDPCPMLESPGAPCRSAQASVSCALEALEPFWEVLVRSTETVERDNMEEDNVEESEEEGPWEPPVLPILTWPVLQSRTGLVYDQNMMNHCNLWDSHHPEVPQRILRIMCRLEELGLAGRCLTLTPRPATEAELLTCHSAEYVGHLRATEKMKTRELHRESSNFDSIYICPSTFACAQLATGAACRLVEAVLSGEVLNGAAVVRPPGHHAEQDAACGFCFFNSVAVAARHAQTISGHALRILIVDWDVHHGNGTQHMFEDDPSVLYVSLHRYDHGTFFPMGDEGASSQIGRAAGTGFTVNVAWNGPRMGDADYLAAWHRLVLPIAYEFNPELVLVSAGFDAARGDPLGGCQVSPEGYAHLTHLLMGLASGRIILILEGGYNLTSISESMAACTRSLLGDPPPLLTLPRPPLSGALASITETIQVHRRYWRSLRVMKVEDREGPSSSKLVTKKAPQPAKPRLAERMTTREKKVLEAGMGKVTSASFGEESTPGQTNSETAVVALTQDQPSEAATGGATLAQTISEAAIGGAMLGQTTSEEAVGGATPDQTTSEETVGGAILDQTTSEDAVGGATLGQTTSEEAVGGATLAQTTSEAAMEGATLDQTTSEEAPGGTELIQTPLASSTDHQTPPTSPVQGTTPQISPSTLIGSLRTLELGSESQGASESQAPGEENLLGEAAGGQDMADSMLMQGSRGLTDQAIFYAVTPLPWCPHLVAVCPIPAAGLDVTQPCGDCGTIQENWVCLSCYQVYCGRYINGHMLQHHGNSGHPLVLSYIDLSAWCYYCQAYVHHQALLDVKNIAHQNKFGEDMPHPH
Sequence of HDAC10 (Q969S8 whole entry, species assumed): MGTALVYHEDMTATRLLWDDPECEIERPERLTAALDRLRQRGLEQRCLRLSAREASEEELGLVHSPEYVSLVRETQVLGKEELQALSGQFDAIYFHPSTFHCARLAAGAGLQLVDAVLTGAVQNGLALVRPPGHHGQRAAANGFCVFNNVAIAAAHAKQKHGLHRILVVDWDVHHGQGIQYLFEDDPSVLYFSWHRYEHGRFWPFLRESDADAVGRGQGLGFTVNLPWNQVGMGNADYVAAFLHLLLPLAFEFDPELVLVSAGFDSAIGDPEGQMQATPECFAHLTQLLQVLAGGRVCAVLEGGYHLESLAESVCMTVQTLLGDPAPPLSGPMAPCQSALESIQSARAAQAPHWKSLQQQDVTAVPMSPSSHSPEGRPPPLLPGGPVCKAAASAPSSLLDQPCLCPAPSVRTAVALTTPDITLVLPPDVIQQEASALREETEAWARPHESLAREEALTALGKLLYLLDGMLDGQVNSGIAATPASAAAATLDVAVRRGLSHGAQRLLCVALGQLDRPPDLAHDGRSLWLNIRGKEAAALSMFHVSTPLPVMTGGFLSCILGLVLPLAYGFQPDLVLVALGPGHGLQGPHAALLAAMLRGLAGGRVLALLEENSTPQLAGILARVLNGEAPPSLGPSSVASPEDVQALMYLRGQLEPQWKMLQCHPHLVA
Sequence of HDAC8 (Q9BY41 whole entry, species assumed): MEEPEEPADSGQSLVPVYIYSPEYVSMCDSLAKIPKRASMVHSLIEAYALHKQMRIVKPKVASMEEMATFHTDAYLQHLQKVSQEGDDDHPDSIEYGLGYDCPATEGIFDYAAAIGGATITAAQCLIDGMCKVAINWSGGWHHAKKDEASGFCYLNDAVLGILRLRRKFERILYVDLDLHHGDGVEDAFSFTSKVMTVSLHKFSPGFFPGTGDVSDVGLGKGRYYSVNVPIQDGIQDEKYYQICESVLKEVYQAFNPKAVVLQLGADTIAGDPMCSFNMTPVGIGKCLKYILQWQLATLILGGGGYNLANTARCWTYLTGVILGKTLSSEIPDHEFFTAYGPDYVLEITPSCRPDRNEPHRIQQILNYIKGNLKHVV
Sequence of HDAC7 (Q8WUI4 whole entry): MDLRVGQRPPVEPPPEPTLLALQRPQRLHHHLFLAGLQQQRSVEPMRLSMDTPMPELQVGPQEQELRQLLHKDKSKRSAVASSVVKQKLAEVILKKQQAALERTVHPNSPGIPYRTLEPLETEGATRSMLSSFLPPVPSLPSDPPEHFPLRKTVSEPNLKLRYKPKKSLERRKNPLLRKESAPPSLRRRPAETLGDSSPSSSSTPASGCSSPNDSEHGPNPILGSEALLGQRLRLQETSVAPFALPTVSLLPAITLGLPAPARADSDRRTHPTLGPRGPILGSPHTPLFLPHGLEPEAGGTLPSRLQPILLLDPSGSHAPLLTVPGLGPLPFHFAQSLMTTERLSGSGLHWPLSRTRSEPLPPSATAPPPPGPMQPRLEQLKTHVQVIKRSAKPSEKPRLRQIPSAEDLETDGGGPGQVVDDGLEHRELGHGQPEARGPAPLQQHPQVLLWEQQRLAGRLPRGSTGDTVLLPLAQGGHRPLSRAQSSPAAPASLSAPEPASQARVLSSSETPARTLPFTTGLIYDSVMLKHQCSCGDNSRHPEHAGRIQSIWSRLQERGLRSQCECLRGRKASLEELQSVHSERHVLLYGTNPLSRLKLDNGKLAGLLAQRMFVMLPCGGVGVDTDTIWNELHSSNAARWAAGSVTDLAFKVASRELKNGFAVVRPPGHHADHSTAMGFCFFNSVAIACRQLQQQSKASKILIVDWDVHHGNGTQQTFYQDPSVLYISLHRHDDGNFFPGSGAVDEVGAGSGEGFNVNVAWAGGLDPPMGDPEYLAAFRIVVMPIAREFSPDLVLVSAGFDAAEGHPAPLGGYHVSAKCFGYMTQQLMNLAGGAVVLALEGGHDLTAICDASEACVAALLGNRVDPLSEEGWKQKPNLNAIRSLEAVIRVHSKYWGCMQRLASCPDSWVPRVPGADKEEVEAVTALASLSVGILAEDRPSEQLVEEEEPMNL
Sequence of HDAC4 (P56524 whole entry, species assumed): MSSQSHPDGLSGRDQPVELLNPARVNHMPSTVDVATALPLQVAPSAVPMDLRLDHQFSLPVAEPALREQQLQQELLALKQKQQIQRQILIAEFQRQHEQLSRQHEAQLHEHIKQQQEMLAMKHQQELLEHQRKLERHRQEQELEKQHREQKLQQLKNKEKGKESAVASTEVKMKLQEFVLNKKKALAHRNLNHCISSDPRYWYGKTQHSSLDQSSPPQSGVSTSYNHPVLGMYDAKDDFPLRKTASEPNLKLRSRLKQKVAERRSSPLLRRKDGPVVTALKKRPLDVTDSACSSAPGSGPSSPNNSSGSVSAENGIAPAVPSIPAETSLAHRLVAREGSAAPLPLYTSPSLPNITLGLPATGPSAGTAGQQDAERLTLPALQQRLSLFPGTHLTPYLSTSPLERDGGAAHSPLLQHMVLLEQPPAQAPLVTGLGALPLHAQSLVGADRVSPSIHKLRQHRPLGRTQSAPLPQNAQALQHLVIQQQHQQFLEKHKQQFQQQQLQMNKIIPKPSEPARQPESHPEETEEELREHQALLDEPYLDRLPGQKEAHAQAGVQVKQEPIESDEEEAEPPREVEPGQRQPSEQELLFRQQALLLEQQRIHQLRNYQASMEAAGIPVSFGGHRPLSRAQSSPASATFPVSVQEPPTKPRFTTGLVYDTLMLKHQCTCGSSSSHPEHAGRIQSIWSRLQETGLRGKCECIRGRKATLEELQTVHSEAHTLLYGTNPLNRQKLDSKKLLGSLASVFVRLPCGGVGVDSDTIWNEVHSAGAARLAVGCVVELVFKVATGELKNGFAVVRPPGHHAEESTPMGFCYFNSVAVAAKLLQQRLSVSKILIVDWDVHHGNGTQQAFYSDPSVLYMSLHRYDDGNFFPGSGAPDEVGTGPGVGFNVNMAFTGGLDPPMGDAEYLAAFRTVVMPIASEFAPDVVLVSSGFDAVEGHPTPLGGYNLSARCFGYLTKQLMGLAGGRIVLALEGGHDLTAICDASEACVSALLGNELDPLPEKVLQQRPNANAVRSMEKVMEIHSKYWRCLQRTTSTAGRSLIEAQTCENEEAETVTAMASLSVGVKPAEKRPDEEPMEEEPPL
Sequence of HDAC1 (Q13547 whole entry): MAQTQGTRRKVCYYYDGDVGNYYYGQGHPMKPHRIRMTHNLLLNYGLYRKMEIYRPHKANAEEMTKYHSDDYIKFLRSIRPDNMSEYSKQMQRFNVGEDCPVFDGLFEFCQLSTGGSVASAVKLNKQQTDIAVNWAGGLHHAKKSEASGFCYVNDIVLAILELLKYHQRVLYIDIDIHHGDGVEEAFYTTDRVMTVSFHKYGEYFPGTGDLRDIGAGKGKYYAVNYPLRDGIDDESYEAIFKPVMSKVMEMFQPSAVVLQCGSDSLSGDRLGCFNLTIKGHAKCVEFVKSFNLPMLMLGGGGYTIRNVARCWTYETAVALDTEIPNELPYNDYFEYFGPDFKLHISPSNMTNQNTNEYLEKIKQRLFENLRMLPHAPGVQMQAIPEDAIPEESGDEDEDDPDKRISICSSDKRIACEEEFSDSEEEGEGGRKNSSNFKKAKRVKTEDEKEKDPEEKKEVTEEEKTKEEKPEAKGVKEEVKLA

A word on the IC50: it is the concentration that inhibits the measured activity by half. As usually defined, the Cmax is the maximum level reached in the sampled fluid or tissue. The half-life is the time needed for the level to fall by half in the phase considered. For `CS(=O)(=O)NCC(Nc1ncc(-c2nnc(C(F)F)o2)cn1)c1ccc(F)cc1` (single isomer, unassigned) [38(+), N-(2-((5-(5-(difluoromethyl)-1,3,4-oxadiazol-2-yl)pyrimidin-2-yl)amino)-2-(4-fluorophenyl)ethyl) methanesulfonamide], the half-maximal inhibitory concentration (IC50) in data set [1], in data set [2], in data set [3], in [4], in [5] and in data set [7] was above 30 µM in each case. For the same compound, the IC50 in data set [8] (read-out: Human HDAC1 IC50) is above 30 µM; in data set [8] (setting [13]), above 30 µM; in data set [9], 16.7 µM; in data set [10] (read-out: Human HDAC6 IC50), 0.015 µM; in data set [10] (setting [14]), 0.015 µM; in [11], above 30 µM. In addition, the 50% inhibitory concentration (IC50) in [12] was above 30 µM. The compound also registered a Cmax in data set [6] of 1110 ng/mL. The compound further had a half-life in data set [6] of 2.7 h.
Turning to `CS(=O)(=O)NCC(Nc1ncc(-c2nnc(C(F)F)o2)cn1)c1ccc(OC(F)F)cc1` (single isomer, unassigned) [115(+), N-(2-(4-(difluoromethoxy)phenyl)-2-((5-(5-(difluoromethyl)-1,3,4-oxadiazol-2-yl)pyrimidin-2-yl)amino)ethyl)methanesulfonamide], the IC50 was above 30 µM in [1]; 10.7 µM in data set [2]; above 30 µM in [3]; above 30 µM in data set [4]; above 30 µM in data set [5]; above 30 µM in [7]. Further, the IC50 in data set [8] (read-out: Human HDAC1 IC50) was above 30 µM; in [8] (setting [13]), above 30 µM; in data set [9] it was 11.9 µM; in data set [10] (read-out: Human HDAC6 IC50), 0.018 µM; in data set [10] (setting [14]), 0.018 µM; in data set [11], above 30 µM. For the same compound, the 50% inhibitory concentration (IC50) in [12] was above 30 µM. In addition, the Cmax in data set [6] came out at 656 ng/mL. The half-life in [6] was 4.3 h.
As to `CS(=O)(=O)N(CC(Nc1ncc(-c2nnc(C(F)F)o2)cn1)c1ccc(F)cc1)CC(F)(F)F` (single isomer, unassigned) [118(+), N-(2-((5-(5-(difluoromethyl)-1,3,4-oxadiazol-2-yl)pyrimidin-2-yl)amino)-2-(4-fluorophenyl)ethyl)-N-(2,2,2-trifluoroethyl)methanesulfonamide], the IC50 in data set [1], in [2], in [3], in data set [4], in data set [5] and in [7] was above 30 µM in each case. Also, the IC50 in [8] (read-out: Human HDAC1 IC50) was above 30 µM; in [8] (setting [13]) it was above 30 µM; in data set [9], above 30 µM; in [10] (read-out: Human HDAC6 IC50), 0.029 µM; in [10] (setting [14]) it was 0.029 µM; in [11], above 30 µM. For the same compound, the half-maximal inhibitory concentration (IC50) in [12] was above 30 µM. Moreover, in data set [6], the Cmax was found to be 697 ng/mL. In [6], this compound gave a half-life of 23.2 h.
Regarding `CS(=O)(=O)NCC(Nc1ncc(-c2nnc(C(F)F)o2)cn1)c1ccc(OC(F)(F)F)cc1` (single isomer, unassigned) [122(+), N-(2-((5-(5-(difluoromethyl)-1,3,4-oxadiazol-2-yl)pyrimidin-2-yl)amino)-2-(4-(trifluoromethoxy)phenyl)ethyl)methanesulfonamide], the IC50 in data set [1] was above 30 µM; in [2], 8.4 µM; in data set [3], above 30 µM; in data set [4], above 30 µM; in [5], above 30 µM; in data set [7] it was above 30 µM. For the same compound, the IC50 in data set [8] (read-out: Human HDAC1 IC50) is above 30 µM; in [8] (setting [13]), above 30 µM; in data set [9] it was 26.7 µM; in [10] (read-out: Human HDAC6 IC50), 0.031 µM; in [10] (setting [14]), 0.031 µM; in data set [11] it was above 30 µM. Besides, in data set [12], the half-maximal inhibitory concentration (IC50) was above 30 µM. This compound gave a Cmax in data set [6] of 2930 ng/mL. Further, in [6], the half-life was 18.4 h.
On to `C[C@@H](Nc1ncc(-c2nnc(C(F)F)o2)cn1)c1ccc(F)cc1F` [Example 99-R, 5-[5-(difluoromethyl)-1,3,4-oxadiazol-2-yl]-N-[(1R)-1-(2,4-difluorophenyl)ethyl]pyrimidin-2-amine], for which the IC50 in data set [1], in data set [2], in data set [3], in data set [4], in data set [5] and in data set [7] was above 30 µM in each case. The half-inhibitory concentration (IC50) in data set [8] (read-out: Human HDAC1 IC50) was above 30 µM; in data set [8] (setting [13]), above 30 µM; in [9] it was above 30 µM; in data set [10] (read-out: Human HDAC6 IC50), 0.028 µM; in [10] (setting [14]) it was 0.028 µM; in data set [11], above 30 µM. For the same compound, in data set [12], the IC50 is above 30 µM.
As for `O=S(=O)(NCC(Nc1ncc(-c2nnc(C(F)F)o2)cn1)c1ccc(F)cc1)C1CC1` (stereo not shown) [Example 110, N-(2-((5-(5-(difluoromethyl)-1,3,4-oxadiazol-2-yl)pyrimidin-2-yl)amino)-2-(4-fluorophenyl)ethyl)cyclopropanesulfonamide], the IC50 in data set [1], in [2], in [3], in data set [4], in data set [5] and in data set [7] was above 30 µM throughout. Further, the IC50 in [8] (read-out: Human HDAC1 IC50) was above 30 µM; in data set [8] (setting [13]) it was above 30 µM; in data set [9] it was above 30 µM; in data set [10] (read-out: Human HDAC6 IC50), 0.028 µM; in data set [10] (setting [14]), 0.028 µM; in data set [11] it was above 30 µM. For the same compound, the half-maximal inhibitory concentration (IC50) in data set [12] is above 30 µM. The compound further displayed a maximum concentration (Cmax) in data set [6] of 830 ng/mL. The same compound showed a half-life in data set [6] of 4.3 h.

Source of the values: patent publication US10357493B2, “Metalloenzyme inhibitor compounds” (Selenity Therapeutics (Bermuda), Ltd., priority 2017, dated 2019).
